From patent publication US20100150938A1, “METHODS AND COMPOSITIONS FOR REDUCING INFLAMMATION AND TREATING INFLAMMATORY DISORDERS” (UNIVERSITY OF MASSACHUSETTS, priority 2008, published 2010)

Key:
mouse macrophages = test: IL-1β release from LPS-primed mouse macrophages (bone marrow-derived, B6-MCLs), ELISA; type: cell-based; conditions: LPS-primed bone marrow-derived macrophages of wild type mice, Aβ 1, 5 and 10 μM
Method: Bone marrow derived macrophages were generated as described (Severa, M et al. Journal of Biological Chemistry 281:26188-26195 (2006)). Human PBMCs were isolated by from whole blood of healthy volunteers by density gradient centrifugation. Lysis of red blood cells was performed using red blood cell lysis buffer (Sigma). Experiments in PBMCs and macrophages were carried out at a cell density of 2×10^6 cells/ml. All primary cells and cell lines except THP-1 cells were cultured in DMEM supplemented with L-glutamine, ciprofloxacin (Cellgro, Manassas, Va.) and 10% fetal calf serum (Hyclone, Logan, Utah). THP-1 cells were cultured in RPMI supplemented with 10% fetal calf serum (Hyclone), L-glutamine, sodium pyruvate (Cellgro), and ciprofloxacin. One day prior to stimulation, THP-1 cells were differentiated using 0.5 μM PMA for three hours, washed three times and plated for stimulation. All experiments that were performed for Western blot analysis were carried out in serum free DMEM medium. ATP stimulations were carried out at 5 mM one hour prior to harvesting supernatants.
Immortalized macrophage cell lines were generated using the previously described J2 recombinant retrovirus (carrying v-myc and v-raf/mil oncogenes) (Roberson, S. M. & Walker, W. S. Cellular immunology 116:341-351 (1988)). Briefly, primary bone marrow cells were incubated in L929 conditioned medium for 3-4 days to induce macrophage differentiation. Subsequently, cells were infected with J2 recombinant retrovirus. Cells were maintained in culture for 3-6 months slowly weaning off the percentage of L929 supernatant until cells were growing in the absence of conditioned medium.
Macrophage phenotype was verified by surface marker expression for CD11b and F480 as well as a range of functional parameters, including responsiveness to TLR ligands and bacterial uptake. Macrophage cell lines from wild-type (C57BL6), NALP3- and ASC-deficient mice were generated and are referred to as B6-MCLs, NALP3 -MCLs and ASC-MCLs.
Cell culture supernatants were assayed for IL-1β using ELISA kits from BD Biosciences (Franklin Lakes, NJ) according to the manufacturer's instructions. To measure intracellular IL-1β, cells were washed and subjected to three freeze thaw cycles in assay diluent.
Stimulations were carried out in serum free DMEM medium. Microglial cells and macrophages were primed with 100 U/ml IFNγ (Griess assay, TNF ELISA, real-time quantitative PCR) or 100 ng/ml ultrapure LPS (IL-1β ELISA, FLICA, ASC-CFP microglia cell line assay, Western blot) 1-3 h prior to stimulation with Aβ, revAβ, zymosan, ATP or transfection with dAdT.

caspase-1 = test: Caspase-1 activation in microglia (FLICA, confocal microscopy, flow cytometry); type: cell-based, mouse; conditions: immortalized microglia, Aβ 10 μM, revAβ 10 μM, ATP 1 mM, 4 h
Method: For assessment of microglia-induced neurotoxicity, CAD mouse neuronal cells^47 were seeded on poly-L-lysine coated glass cover slips and grown in F12/DMEM supplemented with ciprofloxacin (Cellgro, Manassas, Va.) and 10% fetal calf serum (Hyclone, Logan, Utah) for 24 h. Differentiation was induced by withdrawal of serum for 48 h Immortalized microglia from wildtype or caspase-1^−/− mice were added in serum free medium to obtain mixed neuronal/microglial cultures and immediately stimulated. 72 h after stimulation with Aβ or media, cells were fixed, stained for the neuron-specific marker TuJ-1 and microglial marker CD11b, and imaged by confocal microscopy (Leica SP2 AOBS). Caspase-1 activity in microglial cells was assessed using the caspase-1 FLICA™ kit (Immunochemistry Technologies, Bloomington, Minn.) according to the manufacturer's instructions.
For evaluation of lysosomal damage, cells were incubated with LysoTracker green (1:2000) for 30 min and stimulated as described. Lysosomal damage was defined as loss of LysoTracker fluorescence as assessed by flow cytometry. All flow cytometry experiments were performed on an LSRII cytometer (BD Biosciences), data were acquired by DIVA software (BD Biosciences) and analyzed with FlowJo software (Tree Star Inc., Ashland, Oreg.).
IL-1β maturation is controlled by caspase-1 after assembly of the inflammasome, a multi protein complex that activates pro-caspase-1. In order to test whether Aβ activates caspase-1, we measured levels of activated caspase-1 using a fluorescent cell permeable probe (FAM-YVAD-Fmk), which covalently binds only to activated caspase-1 (Fluorescent labeled Inhibitors of Caspases, FLICA)^14. […] Similar results were obtained in primary microglial cultures (FIG. 15c).

ASC = test: ASC-CFP microglia cell line, ASC clustering; type: cell-based, mouse; conditions: LPS-primed ASC-CFP microglia, 3 h after stimulation
Text: Human ASC was fused to CFP using BgIII/BamHI in pEF-BOS-CFP. Subsequently, ASC-CFP was cloned using XhoI and NotI into a modified form of FUGW (FUGW-XN). FUGW-XN was modified by replacing GFP with a novel cut site that created XhoI and NotI compatible ends upon Esp3I digestion.
Lentivirus was produced in 293T cells transfected with the FUGW based expression vector coding for ASC-CFP, lentiviral packaging plasmid containing gag, pol and rev genes (pCMV-dR8.91) and envelope plasmid (VSV-G) using TransIT-LT1 transfection reagent (Minis Bio, MIR 2300/5/6) as previously described^46. One day after transfection, medium was replaced and after one additional day of culture supernatants containing the lentivirus was removed, filtered and used to infect immortalized microglia cells.
For experiments, ASC-CFP microglial cells were seeded in duplicate into confocal dishes, stimulated as indicated. A647-labeled cholera toxin subunit B (1:1000) was added to stain cellular membranes. Cells were subsequently imaged using confocal microscopy (Leica SP2 AOBS). Cells were fixed and 5 random fields were imaged in duplicate for quantification.
First, we stably transduced microglial cell cultures with a fusion protein of ASC and cyan fluorescent protein (CFP). ASC forms large oligomers upon its activation, leading to visible changes in the cytoplasmic fluorescence pattern of ASC-CFP. […]

[1] = system: CCL-3/MIP1 a, CCL4/MIP1β and CXCL2/MIP2; test: Chemokine mRNA in microglia (QRT-PCR); type: cell-based, mouse; conditions: wild type microglial cells, Aβ 10 μM, 6 and 24 h
Method: Immortalized murine microglia were seeded in 6 well tissue culture plates, incubated in the absence or presence of 10 μM Aβ, washed with PBS and lysed in 1 mL TRIZOL reagent (Invitrogen). RNA was purified by organic extraction. 5 μg of RNA from each sample was reverse transcribed using multiscribe reverse transcriptase (Applied Biosystems). Oligonucleotide primers were designed using the Primer3 Input PCR primer design program (version 0.4.0.) and QRT-PCR experiments were performed using an iQ Real-Time PCR Detection System (Bio-Rad) and Optical System Software (Version 2.0, Bio-Rad). Relative quantification of mRNA expression was calculated by the comparative cycle method as described by the manufacturer.

Q: Which “IL-1β release induced by Aβ” value (mouse macrophages) does the source give for Aβ 1-42 peptide here?
A: Its value is “strong and dose-dependent IL-1β release”.

Q: What about the “caspase-1 positive microglial cells after stimulation” value (caspase-1) of the same substance?
A: Its value is “robust increase”.

Q: What about the “formation of fluorescent ASC-CFP clusters” value (ASC) of the same substance?
A: Its value is “brightly fluorescent clusters of ASC-CFP formed”.

Q: And the “gene expression of chemokines CCL-3/MIP1 a, CCL4/MIP1β and CXCL2/MIP2” value [1]?
A: Its value is “time-dependently upregulated”.
